In PubChem BioAssay (NCI):
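Each compound was tested at five concentrations against cells in 96-well plates for 48 hours. GI50 is the concentration that inhibits growth by half. The concentration for full growth arrest is given as TGI.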

Tests used:
Experiment in all cases: growth of human tumour cells (NCI), 48 h
SK-MEL-5 melanoma = tested on: SK-MEL-5 melanoma
CAKI-1 renal = tested on: CAKI-1 renal
SK-MEL-28 melanoma = tested on: SK-MEL-28 melanoma
KM12 colon = tested on: KM12 colon
SW-620 colon = tested on: SW-620 colon
IGROV1 ovarian = tested on: IGROV1 ovarian
MALME-3M melanoma = tested on: MALME-3M melanoma
COLO 205 colon = tested on: COLO 205 colon
A498 renal = tested on: A498 renal
A549 NSCLC = tested on: A549 NSCLC
HOP-62 NSCLC = tested on: HOP-62 NSCLC
SNB-75 CNS = tested on: SNB-75 CNS
SR leukemia = tested on: SR leukemia
UACC-62 melanoma = tested on: UACC-62 melanoma
NCI-H460 lung = tested on: NCI-H460 lung
K-562 leukemia = tested on: K-562 leukemia
SN12C renal = tested on: SN12C renal
OVCAR-5 ovarian = tested on: OVCAR-5 ovarian
RPMI-8226 leukemia = tested on: RPMI-8226 leukemia
MDA-MB-435 = tested on: MDA-MB-435
NCI-H23 lung = tested on: NCI-H23 lung
T-47D breast = tested on: T-47D breast
UACC-257 melanoma = tested on: UACC-257 melanoma
U251 CNS = tested on: U251 CNS
PC-3 prostate = tested on: PC-3 prostate
MCF7 breast = tested on: MCF7 breast
HL-60(TB) leukemia = tested on: HL-60(TB) leukemia
HT29 colon = tested on: HT29 colon
SNB-19 CNS = tested on: SNB-19 CNS
HS 578T breast = tested on: HS 578T breast
MOLT-4 leukemia = tested on: MOLT-4 leukemia
OVCAR-4 ovarian = tested on: OVCAR-4 ovarian
SF-295 CNS = tested on: SF-295 CNS
MDA-MB-468 breast = tested on: MDA-MB-468 breast
MDA-MB-231 breast = tested on: MDA-MB-231 breast
DU-145 prostate = tested on: DU-145 prostate
M14 melanoma = tested on: M14 melanoma
NCI-H226 lung = tested on: NCI-H226 lung
ACHN renal = tested on: ACHN renal
HCC-2998 colon = tested on: HCC-2998 colon
SF-268 CNS = tested on: SF-268 CNS
OVCAR-3 ovarian = tested on: OVCAR-3 ovarian
HOP-92 NSCLC = tested on: HOP-92 NSCLC
EKVX NSCLC = tested on: EKVX NSCLC
OVCAR-8 ovarian = tested on: OVCAR-8 ovarian
HCT-15 colon = tested on: HCT-15 colon
786-0 renal = tested on: 786-0 renal
SK-OV-3 ovarian = tested on: SK-OV-3 ovarian
CCRF-CEM leukemia = tested on: CCRF-CEM leukemia
TK-10 renal = tested on: TK-10 renal
NCI-H522 lung = tested on: NCI-H522 lung
UO-31 renal = tested on: UO-31 renal
SK-MEL-2 melanoma = tested on: SK-MEL-2 melanoma
BT-549 breast = tested on: BT-549 breast
RXF 393 renal = tested on: RXF 393 renal
NCI/ADR-RES ovarian = tested on: NCI/ADR-RES ovarian
SF-539 CNS = tested on: SF-539 CNS
HCT-116 colon = tested on: HCT-116 colon
LOX IMVI melanoma = tested on: LOX IMVI melanoma

`CS(=O)(=O)Nc1cncc(-c2ccc3ncnc(NCc4ccccc4)c3c2)c1` showed a GI50 (SK-MEL-5 melanoma) of 12.9 µM, a TGI (SK-MEL-5 melanoma) of 25.6 µM and a GI50 (CAKI-1 renal) of 12.8 µM. For the same molecule, the TGI (CAKI-1 renal) was 30.2 µM, the GI50 (SK-MEL-28 melanoma) was 11 µM and the TGI (SK-MEL-28 melanoma) was 38.3 µM. It also gave a GI50 (KM12 colon) of 14.2 µM, a TGI (KM12 colon) of 30 µM and a GI50 (SW-620 colon) of 17.1 µM. For the same molecule, the TGI (SW-620 colon) was 41.6 µM, the GI50 (IGROV1 ovarian) was 7.73 µM and the TGI (IGROV1 ovarian) was 22.9 µM. The GI50 (MALME-3M melanoma) was 4.17 µM, the TGI (MALME-3M melanoma) was 21.5 µM and the GI50 (COLO 205 colon) was 13.2 µM. It also gave a TGI (COLO 205 colon) of 26.6 µM, a GI50 (A498 renal) of 13.1 µM and a TGI (A498 renal) of 36.1 µM. The GI50 (A549 NSCLC) was 15.5 µM, the TGI (A549 NSCLC) was 31.7 µM and the GI50 (HOP-62 NSCLC) was 12.2 µM. The TGI (HOP-62 NSCLC) was 35 µM, the GI50 (SNB-75 CNS) was 6.7 µM and the TGI (SNB-75 CNS) was 32.8 µM. The GI50 (SR leukemia) was 8.84 µM, the TGI (SR leukemia) was 40.3 µM and the GI50 (UACC-62 melanoma) was 7.19 µM. It also gave a TGI (UACC-62 melanoma) of 20.4 µM, a GI50 (NCI-H460 lung) of 25.6 µM and a TGI (NCI-H460 lung) of 94.3 µM. For the same molecule, the GI50 (K-562 leukemia) was 18.7 µM, the TGI (K-562 leukemia) was > 100 µM and the GI50 (SN12C renal) was 12.4 µM. The TGI (SN12C renal) was 39.1 µM, the GI50 (OVCAR-5 ovarian) was 12.3 µM and the TGI (OVCAR-5 ovarian) was 32.9 µM. For the same molecule, the GI50 (RPMI-8226 leukemia) was 15.1 µM, the TGI (RPMI-8226 leukemia) was 38 µM and the GI50 (MDA-MB-435) was 10.8 µM. For the same molecule, the TGI (MDA-MB-435) was 27.4 µM, the GI50 (NCI-H23 lung) was 12.7 µM and the TGI (NCI-H23 lung) was 28.1 µM. For the same molecule, the GI50 (T-47D breast) was 2.85 µM, the TGI (T-47D breast) was 12.7 µM and the GI50 (UACC-257 melanoma) was 13.8 µM. For the same molecule, the TGI (UACC-257 melanoma) was 51.6 µM, the GI50 (U251 CNS) was 7.54 µM and the TGI (U251 CNS) was 41 µM. It also gave a GI50 (PC-3 prostate) of 14.6 µM, a TGI (PC-3 prostate) of 38.3 µM and a GI50 (MCF7 breast) of 4.56 µM. For the same molecule, the TGI (MCF7 breast) was 24.6 µM, the GI50 (HL-60(TB) leukemia) was 10.3 µM and the TGI (HL-60(TB) leukemia) was 40.9 µM. For the same molecule, the GI50 (HT29 colon) was 14.4 µM, the TGI (HT29 colon) was 30 µM and the GI50 (SNB-19 CNS) was 9.74 µM. It also gave a TGI (SNB-19 CNS) of 26.2 µM, a GI50 (HS 578T breast) of 3.36 µM and a TGI (HS 578T breast) of 20.5 µM. It also gave a GI50 (MOLT-4 leukemia) of 5.53 µM, a TGI (MOLT-4 leukemia) of 74 µM and a GI50 (OVCAR-4 ovarian) of 12.2 µM. For the same molecule, the TGI (OVCAR-4 ovarian) was 50.2 µM, the GI50 (SF-295 CNS) was 16.4 µM and the TGI (SF-295 CNS) was 39.4 µM. For the same molecule, the GI50 (MDA-MB-468 breast) was 2.14 µM, the TGI (MDA-MB-468 breast) was 8.25 µM and the GI50 (MDA-MB-231 breast) was 12.3 µM. The TGI (MDA-MB-231 breast) was 27 µM, the GI50 (DU-145 prostate) was 22.2 µM and the TGI (DU-145 prostate) was > 100 µM. It also gave a GI50 (M14 melanoma) of 14.6 µM, a TGI (M14 melanoma) of 45.7 µM and a GI50 (NCI-H226 lung) of 14 µM. The TGI (NCI-H226 lung) was 37.1 µM, the GI50 (ACHN renal) was 20.2 µM and the TGI (ACHN renal) was > 100 µM. It also gave a GI50 (HCC-2998 colon) of 11.5 µM, a TGI (HCC-2998 colon) of 23.8 µM and a GI50 (SF-268 CNS) of 10.5 µM. For the same molecule, the TGI (SF-268 CNS) was 36.7 µM, the GI50 (OVCAR-3 ovarian) was 5.93 µM and the TGI (OVCAR-3 ovarian) was 21.6 µM. It also gave a GI50 (HOP-92 NSCLC) of 3.92 µM, a TGI (HOP-92 NSCLC) of 20.1 µM and a GI50 (EKVX NSCLC) of 12.9 µM. For the same molecule, the TGI (EKVX NSCLC) was 31.4 µM, the GI50 (OVCAR-8 ovarian) was 19.1 µM and the TGI (OVCAR-8 ovarian) was 79 µM. The GI50 (HCT-15 colon) was 23.3 µM, the TGI (HCT-15 colon) was 98.3 µM and the GI50 (786-0 renal) was 15 µM. The TGI (786-0 renal) was 37.3 µM, the GI50 (SK-OV-3 ovarian) was 15.5 µM and the TGI (SK-OV-3 ovarian) was 34.9 µM. The GI50 (CCRF-CEM leukemia) was 4.58 µM, the TGI (CCRF-CEM leukemia) was 33.3 µM and the GI50 (TK-10 renal) was 10.7 µM. The TGI (TK-10 renal) was 29.9 µM, the GI50 (NCI-H522 lung) was 4.21 µM and the TGI (NCI-H522 lung) was 18.9 µM. It also gave a GI50 (UO-31 renal) of 12.1 µM, a TGI (UO-31 renal) of 36.5 µM and a GI50 (SK-MEL-2 melanoma) of 5.75 µM. For the same molecule, the TGI (SK-MEL-2 melanoma) was 19.3 µM, the GI50 (BT-549 breast) was 3.63 µM and the TGI (BT-549 breast) was 21.5 µM. For the same molecule, the GI50 (RXF 393 renal) was 10.8 µM, the TGI (RXF 393 renal) was 26.6 µM and the GI50 (NCI/ADR-RES ovarian) was > 100 µM. For the same molecule, the TGI (NCI/ADR-RES ovarian) was > 100 µM, the GI50 (SF-539 CNS) was 11.9 µM and the TGI (SF-539 CNS) was 27.6 µM. It also gave a GI50 (HCT-116 colon) of 13.9 µM, a TGI (HCT-116 colon) of 29.1 µM and a GI50 (LOX IMVI melanoma) of 11.9 µM. It also gave a TGI (LOX IMVI melanoma) of 24.2 µM.
